Bridge positions count the residues as written; N and C are the ends. Ends that are not written are not given here.
How the values were obtained:
PnTx2-6 binding site = details: ref [14]; cited from earlier work
Excerpt: PnTx2-1 shares the highest sequence identity with PnTx2-5 and PnTx2-6, which are also isolated from the Phoneutria nigriventer venom fraction 2 [13]. PnTx2-5 and PnTx2-6 are the best-characterized toxins from the PhTx2 venom fraction. These two toxins share 90% sequence identity, with only five amino acid residues different (Figure 1). […] Both peptides modulate sodium chann ...

NaV1.5 [1] = target: T1, NaV1.5 (Homo sapiens, UniProt Q14524); assay type: cell-based, mammalian
NaV1.1 [2] = target: T2, NaV1.1 (Homo sapiens, UniProt P35498); experiment: Two-electrode voltage clamp in Xenopus oocytes, NaV1.1 modulation / concentration-response; assay type: cell-based, mammalian; details: NaV1.1, 1 µM
NaV1.2 = experiment: Two-electrode voltage clamp in Xenopus oocytes, NaV1.2 modulation; assay type: cell-based, mammalian
NaV1.3 = experiment: Two-electrode voltage clamp in Xenopus oocytes, NaV1.3 modulation; assay type: cell-based, mammalian
NaV1.4 = experiment: Two-electrode voltage clamp in Xenopus oocytes, NaV1.4 modulation; assay type: cell-based, mammalian
NaV1.5 [3] = target: T1, NaV1.5; experiment: Two-electrode voltage clamp in Xenopus oocytes, NaV1.5 modulation / concentration-response; assay type: cell-based, mammalian; details: NaV1.5, 1 µM
NaV1.6 = experiment: Two-electrode voltage clamp in Xenopus oocytes, NaV1.6 modulation; assay type: cell-based, mammalian
NaV1.8 [4] = target: T3, NaV1.8 (Homo sapiens, UniProt Q9Y5Y9); experiment: Two-electrode voltage clamp in Xenopus oocytes, NaV1.8 modulation / concentration-response; assay type: cell-based, mammalian; details: NaV1.8, 1 μM
BgNaV1 [5] = experiment: Two-electrode voltage clamp in Xenopus oocytes, BgNaV1 modulation / concentration-response; assay type: cell-based, Blattella germanica
VdNaV1 = experiment: Two-electrode voltage clamp in Xenopus oocytes, VdNaV1 modulation / concentration-response; assay type: cell-based, Varroa destructor
NaV1.1 [6] = target: T2, NaV1.1; experiment: Voltage dependence of activation and steady-state inactivation, NaV1.1; assay type: cell-based, mammalian; details: NaV1.1, 1 µM
NaV1.5 [7] = target: T1, NaV1.5; experiment: Current-voltage relationship, activation and steady-state inactivation, NaV1.5; assay type: cell-based, mammalian
NaV1.8 [8] = target: T3, NaV1.8; experiment: Voltage dependence of activation and steady-state inactivation, NaV1.8; assay type: cell-based, mammalian
BgNaV1 [9] = experiment: Voltage dependence of activation and steady-state inactivation, BgNaV1; assay type: cell-based, Blattella germanica
NaV1.5 [10] = target: T1, NaV1.5; experiment: Recovery from inactivation, NaV1.5; assay type: cell-based, mammalian; details: NaV1.5, 1 µM
BgNaV1 [11] = experiment: Recovery from fast inactivation, BgNaV1; assay type: cell-based, Blattella germanica; details: BgNaV1, 1 µM
BgNaV1 [12] = experiment: State-dependence (toxin incubation without depolarizing pulses), BgNaV1; assay type: cell-based, Blattella germanica; details: BgNaV1, 1 µM
NaV channels = experiment: NaV channel panel in Xenopus oocytes (ion selectivity, species selectivity); assay type: cell-based; details: presence of toxin, ion selectivity not altered
mice = details: cited from earlier work
Excerpt: Spiders can be considered one of the most successful venomous animals ever to inhabit the planet with over 47,000 species characterized to date. Despite this diversity, no more than 100 spider species have had their venom investigated. With over ten million estimated biologically active peptides in spider venoms, this means that less than 0.01% of spider peptides have been studied, making spider venom an untapped treasure of biologically active compounds with promising discoveries in drug and bioinsecticide development. Phoneutria nigriventer are very ...

T1 sequence (Q14524 whole entry, looked up): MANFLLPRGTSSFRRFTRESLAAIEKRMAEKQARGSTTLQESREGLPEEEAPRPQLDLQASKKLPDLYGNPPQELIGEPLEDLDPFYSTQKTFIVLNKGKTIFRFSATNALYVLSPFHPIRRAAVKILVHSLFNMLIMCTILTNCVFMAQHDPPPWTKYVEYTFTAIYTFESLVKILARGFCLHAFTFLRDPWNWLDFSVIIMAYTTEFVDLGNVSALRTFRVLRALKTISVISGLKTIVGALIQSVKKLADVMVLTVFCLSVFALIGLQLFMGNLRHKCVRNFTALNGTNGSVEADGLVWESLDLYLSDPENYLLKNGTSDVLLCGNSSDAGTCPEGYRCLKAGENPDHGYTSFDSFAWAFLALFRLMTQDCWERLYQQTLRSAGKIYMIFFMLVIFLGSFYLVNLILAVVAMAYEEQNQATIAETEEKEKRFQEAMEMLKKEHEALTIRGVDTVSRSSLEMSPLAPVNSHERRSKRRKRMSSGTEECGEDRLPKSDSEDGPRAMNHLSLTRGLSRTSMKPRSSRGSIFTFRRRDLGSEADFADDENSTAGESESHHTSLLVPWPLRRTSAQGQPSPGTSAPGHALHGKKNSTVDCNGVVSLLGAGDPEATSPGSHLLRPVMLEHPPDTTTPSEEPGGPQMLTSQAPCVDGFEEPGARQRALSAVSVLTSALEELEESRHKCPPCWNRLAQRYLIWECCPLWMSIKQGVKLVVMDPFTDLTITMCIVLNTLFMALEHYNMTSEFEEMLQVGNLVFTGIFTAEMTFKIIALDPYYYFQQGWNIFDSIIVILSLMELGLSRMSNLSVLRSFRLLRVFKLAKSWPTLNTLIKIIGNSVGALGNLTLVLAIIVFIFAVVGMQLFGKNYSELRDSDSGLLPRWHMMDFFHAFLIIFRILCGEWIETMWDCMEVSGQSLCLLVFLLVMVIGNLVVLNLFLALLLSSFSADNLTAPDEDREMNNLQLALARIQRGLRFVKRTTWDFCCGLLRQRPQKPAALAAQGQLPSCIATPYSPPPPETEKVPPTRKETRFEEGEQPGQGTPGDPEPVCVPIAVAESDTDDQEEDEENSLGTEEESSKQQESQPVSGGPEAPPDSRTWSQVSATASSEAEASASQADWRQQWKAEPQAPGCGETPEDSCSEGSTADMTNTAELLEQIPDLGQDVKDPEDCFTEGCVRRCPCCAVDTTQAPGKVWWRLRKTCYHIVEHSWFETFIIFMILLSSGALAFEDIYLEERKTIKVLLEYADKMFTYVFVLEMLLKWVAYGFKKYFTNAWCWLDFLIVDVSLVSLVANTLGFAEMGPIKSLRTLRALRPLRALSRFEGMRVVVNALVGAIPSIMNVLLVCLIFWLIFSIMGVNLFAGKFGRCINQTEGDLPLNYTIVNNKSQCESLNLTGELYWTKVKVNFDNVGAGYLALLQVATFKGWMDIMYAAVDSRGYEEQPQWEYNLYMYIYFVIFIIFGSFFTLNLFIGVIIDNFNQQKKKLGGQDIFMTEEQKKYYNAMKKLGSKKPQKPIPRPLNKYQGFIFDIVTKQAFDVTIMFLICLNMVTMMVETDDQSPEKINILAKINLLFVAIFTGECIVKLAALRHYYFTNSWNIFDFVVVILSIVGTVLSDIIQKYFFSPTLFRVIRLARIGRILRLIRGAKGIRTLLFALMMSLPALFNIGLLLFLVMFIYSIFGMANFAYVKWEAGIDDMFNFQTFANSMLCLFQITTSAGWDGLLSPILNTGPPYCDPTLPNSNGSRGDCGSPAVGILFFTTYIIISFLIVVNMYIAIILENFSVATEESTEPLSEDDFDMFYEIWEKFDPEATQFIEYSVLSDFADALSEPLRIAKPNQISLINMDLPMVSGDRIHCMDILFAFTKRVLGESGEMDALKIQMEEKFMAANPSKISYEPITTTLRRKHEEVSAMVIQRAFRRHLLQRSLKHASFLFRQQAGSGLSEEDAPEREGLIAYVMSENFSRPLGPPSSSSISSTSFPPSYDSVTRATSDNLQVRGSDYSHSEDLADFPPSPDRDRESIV
T3 sequence (Q9Y5Y9 whole entry): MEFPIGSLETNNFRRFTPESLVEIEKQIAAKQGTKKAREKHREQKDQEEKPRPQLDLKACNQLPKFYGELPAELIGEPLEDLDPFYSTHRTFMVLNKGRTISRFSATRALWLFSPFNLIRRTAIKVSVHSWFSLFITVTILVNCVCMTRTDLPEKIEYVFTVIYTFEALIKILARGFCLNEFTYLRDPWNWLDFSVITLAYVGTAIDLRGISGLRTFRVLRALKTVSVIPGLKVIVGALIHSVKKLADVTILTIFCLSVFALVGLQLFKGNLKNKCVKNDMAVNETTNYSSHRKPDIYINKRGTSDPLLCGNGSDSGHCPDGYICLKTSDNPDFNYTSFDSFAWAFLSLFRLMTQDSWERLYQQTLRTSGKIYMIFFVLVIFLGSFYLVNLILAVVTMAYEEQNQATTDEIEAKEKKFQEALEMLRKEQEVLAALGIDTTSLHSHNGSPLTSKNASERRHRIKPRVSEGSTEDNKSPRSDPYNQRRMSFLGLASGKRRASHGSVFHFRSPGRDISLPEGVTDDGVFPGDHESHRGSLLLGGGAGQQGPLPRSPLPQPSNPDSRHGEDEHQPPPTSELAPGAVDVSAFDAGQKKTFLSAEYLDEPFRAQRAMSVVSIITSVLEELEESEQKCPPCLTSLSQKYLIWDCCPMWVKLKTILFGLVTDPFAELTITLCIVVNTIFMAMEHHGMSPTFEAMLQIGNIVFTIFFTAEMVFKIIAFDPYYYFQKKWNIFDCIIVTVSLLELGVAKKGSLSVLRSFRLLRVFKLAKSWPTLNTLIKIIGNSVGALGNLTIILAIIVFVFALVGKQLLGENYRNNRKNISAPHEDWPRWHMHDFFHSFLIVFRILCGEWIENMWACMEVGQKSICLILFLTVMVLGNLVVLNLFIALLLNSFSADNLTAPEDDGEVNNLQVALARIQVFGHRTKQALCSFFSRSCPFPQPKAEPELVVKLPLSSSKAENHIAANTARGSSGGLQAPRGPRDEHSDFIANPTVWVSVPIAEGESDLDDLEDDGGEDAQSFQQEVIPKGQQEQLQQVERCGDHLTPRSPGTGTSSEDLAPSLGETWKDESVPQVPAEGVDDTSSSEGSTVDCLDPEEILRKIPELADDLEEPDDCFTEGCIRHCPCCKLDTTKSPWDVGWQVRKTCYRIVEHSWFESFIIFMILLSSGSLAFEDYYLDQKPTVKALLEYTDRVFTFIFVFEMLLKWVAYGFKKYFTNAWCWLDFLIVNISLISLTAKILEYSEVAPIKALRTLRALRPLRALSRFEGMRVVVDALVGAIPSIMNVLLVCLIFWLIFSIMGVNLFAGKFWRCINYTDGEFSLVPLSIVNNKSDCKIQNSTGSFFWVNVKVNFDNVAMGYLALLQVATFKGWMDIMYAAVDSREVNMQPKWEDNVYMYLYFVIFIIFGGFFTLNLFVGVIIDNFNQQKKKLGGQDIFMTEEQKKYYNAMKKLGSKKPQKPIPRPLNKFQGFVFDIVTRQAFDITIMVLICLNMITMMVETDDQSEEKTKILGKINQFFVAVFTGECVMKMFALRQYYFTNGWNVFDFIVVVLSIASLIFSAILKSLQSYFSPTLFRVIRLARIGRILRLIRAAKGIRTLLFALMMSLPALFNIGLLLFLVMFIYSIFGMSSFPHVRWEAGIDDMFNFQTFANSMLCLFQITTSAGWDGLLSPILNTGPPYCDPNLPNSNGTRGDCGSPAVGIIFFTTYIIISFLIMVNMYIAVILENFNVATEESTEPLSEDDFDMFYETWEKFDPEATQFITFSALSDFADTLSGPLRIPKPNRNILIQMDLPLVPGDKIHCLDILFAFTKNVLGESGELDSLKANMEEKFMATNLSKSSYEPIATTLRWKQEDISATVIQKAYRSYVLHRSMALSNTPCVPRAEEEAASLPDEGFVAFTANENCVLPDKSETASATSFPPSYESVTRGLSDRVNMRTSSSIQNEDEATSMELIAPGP

Question: For “CssIV: β-scorpion toxin CssIV (from Centruroides suffusus suffusus)”, which “competition with PnTx2-6” value (PnTx2-6 binding site) is on record?
Answer: The value was “does not compete with PnTx2-6”.

Question: With NC1=N[C@H](O)[C@H]2[C@H]3O[C@]4(O)O[C@@H]([C@@H](O)[C@@]2(N1)[C@@H]4O)[C@]3(O)CO [tetrodotoxin (TTX), tetrodotoxin, reference compound] as the compound, how does the “decrease of the sodium current peak amplitude” value (NaV1.5 [1]) read?
Answer: Its value is 50%.

Question: Which results are given for “ATCAGQDKPCKETCDCCGERGECVCALSYEGKYRCICRQGNFLIAWHKLASCK (disulfide 3-17, 10-23, 14-52, 16-37, 25-35) [PnTx2-1]”?
Answer: effect on inactivation (NaV1.1 [2]): slowed the inactivation; effect on channel (NaV1.2; NaV1.2, 1 μM): not affected; activity on channel (NaV1.2; NaV1.2, up to 5 µM, data not shown): no activity; effect on channel (NaV1.3; NaV1.3, 1 μM): not affected; activity on channel (NaV1.3; NaV1.3, up to 5 µM, data not shown): no activity; effect on channel (NaV1.4; NaV1.4, 1 μM): not affected; activity on channel (NaV1.4; NaV1.4, up to 5 µM, data not shown): no activity; effect on inactivation (NaV1.5 [3]): slowed the inactivation; effect on channel (NaV1.6; NaV1.6, 1 μM): not affected; activity on channel (NaV1.6; NaV1.6, up to 5 µM, data not shown): no activity; effect on inactivation (NaV1.8 [4]): slowed the inactivation; effect on inactivation (BgNaV1 [5]; BgNaV1, 1 µM): completely inhibited inactivation of BgNaV1 channels, resulting in sustained non-inactivating currents; EC50 (BgNaV1 [5]; BgNaV1, modulation (current at 30 ms / control peak), Hill fit, Xenopus oocytes, ND96 pH 7.5, 18–22 °C, holding −90 mV, mean ± SEM, n ≥ 3): 91.9 ± 17 nM; effect on inactivation (VdNaV1; VdNaV1, 1 μM): profound effect on the inactivation; EC50 (VdNaV1; VdNaV1, modulation (current at 30 ms / control peak), Hill fit, Xenopus oocytes, ND96 pH 7.5, 18–22 °C, holding −90 mV, mean ± SEM, n ≥ 3): 102 ± 14.7 nM; shift of midpoint of activation (NaV1.1 [6]): the midpoint of activation shifted towards more depolarized potentials; shift of steady-state inactivation curve (NaV1.1 [6]): the steady-state inactivation curves shifted towards more hyperpolarized membrane potentials; window of open probability (NaV1.1 [6]): increased window of open probability; shift of midpoint of activation (NaV1.5 [7]; NaV1.5, 1 µM): the midpoint of activation shifted towards more depolarized potentials; shift of steady-state inactivation curve (NaV1.5 [7]; NaV1.5, 1 µM): the steady-state inactivation curves shifted towards more hyperpolarized membrane potentials; window of open probability (NaV1.5 [7]; NaV1.5, 1 µM): increased window of open probability; V1/2 of activation (NaV1.5 [7]; NaV1.5, 1 µM toxin, control −53.1 ± 0.1, mean ± SEM, n ≥ 3): −45.3 ± 0.1 mV; V1/2 of steady-state inactivation (NaV1.5 [7]; NaV1.5, 1 µM toxin, control −78.4 ± 0.2, mean ± SEM, n ≥ 3): −87.5 ± 0.7 mV; effect on sodium peak current (NaV1.5 [7]; NaV1.5, Figure 2E, Figure 3B and Figure 5A): inhibition of the sodium peak current; modulation of gating kinetics (NaV1.8 [8]; NaV1.8, 1 μM): No relevant modulation of the gating kinetics; V1/2 of activation (NaV1.8 [8]; NaV1.8, 1 µM toxin, control −11.5 ± 0.1, mean ± SEM, n ≥ 3): −11.4 ± 0.1 mV; completeness of steady-state inactivation (BgNaV1 [9]; BgNaV1, 1 µM): steady-state inactivation became incomplete after toxin addition; shift of activation midpoint and steady-state inactivation (BgNaV1 [9]; BgNaV1, 1 µM): A shift in the midpoint of activation and in the voltage dependence of steady-state inactivation; V1/2 of activation (BgNaV1 [9]; BgNaV1, 1 µM toxin, control −38.1 ± 0.1, mean ± SEM, n ≥ 3): −45.8 ± 0.3 mV; non-inactivating current component of steady-state inactivation (BgNaV1 [9]; BgNaV1, 1 µM, mean ± SEM, n ≥ 3): 62.3 ± 3.2%; recovery from inactivation (NaV1.5 [10]): strongly enhanced the recovery from inactivation; recovery from inactivation, τ (NaV1.5 [10]; control τ = 50.2 ± 3.0 ms, mean ± SEM, n ≥ 3): 22.8 ± 3.2 ms; recovery from fast inactivation (BgNaV1 [11]): does not influence the recovery from fast inactivation; binding at neurotoxin site 1 (NaV1.5 [1]): does not bind at site 1; effect on peak amplitude after TTX (NaV1.5 [1]): additional reduction of the peak amplitude; slowing of inactivation after closed-state incubation (BgNaV1 [12]; 2 min at −90 mV without depolarizing pulses, then pulse to 0 mV): significant slowing down of inactivation; toxin interaction state (BgNaV1 [12]; closed state): toxin interaction with the channel in the closed state; reversal potential (NaV channels): No significant change in the reversal potential; signs after injection (mice; injected, ref [12]): pruritus, lacrimation, increased salivation, sweating and agitation followed by spastic paralysis of the limbs; toxicity after intracerebral injection (mice; intracerebral (i.c.), among the nine PhTx2 peptides, ref [13]): higher toxicity

Source: paper PMC6162791, “Phoneutria nigriventer Spider Toxin PnTx2-1 (δ-Ctenitoxin-Pn1a) Is a Modulator of Sodium Channel Gating” (Toxins, 2018)
